{
  "source": "patent US11957684B2",
  "about": "“Treatment of heavy menstrual bleeding associated with uterine fibroids” (Sumitomo Pharma Switzerland GmbH, priority 2016, dated 2024)",
  "key": {"clinical": {"test": "clinical", "details": "female, human, in vivo", "description": "(§1) The study was a phase 1, double-blind, randomized, placebo-controlled, sequential-panel, ascending single- and multiple-dose study in healthy premenopausal women. Ten groups, each of 12 healthy premenopausal, adult women, participated in the study (Cohorts 1 to 10).\nCohorts 1 to 6 were referred to as the single-rising dose (SRD) portion of the study, where cohorts were dosed in an escalating fashion. All subjects in a given cohort received their dose of study medication on the same day with the exception of subjects in Cohort 1, which were split into 2 subcohorts (Cohorts 1a and 1b). Dosing between these 2 subcohorts was separated by a minimum of 2 days. Dosing between subsequent cohorts was separated by a minimum of 7 days. The decision to proceed to Cohort 1b was made by the investigator after a minimum 48-hour evaluation of subjects in Cohort 1a. The decision to escalate the dose for the remaining cohorts in the SRD portion was based on review of the safety and pharmacokinetic data for all subjects in the previous cohort.\nSubjects were required to fast overnight (minimum 10 hours) prior to dosing and continued to fast for 4 hours following dosing. Subjects were given a menu for the dosing period to include 2 meals and an evening snack, each containing approximately 25% fat content. Six ascending dose groups were planned: 1.0 mg (Cohort 1), 5.0 mg (Cohort 2), 10 mg (Cohort 3), 20 mg (Cohort 4), 40 mg (Cohort 5), and 80 mg (Cohort 6). Subjects in each of Cohorts 1a, 1b, 2, 3, 4, 5 and 6 received drug dosing on a single day only.\nCohorts 1 to 7 were each composed of 12 healthy premenopausal women aged 18 to 49 years, inclusive. […] In one sequence, dosing was under fasting conditions (minimum 10 hours). In the other sequence, dosing was approximately 30 minutes after the start of a high-fat, high calorie breakfast (provided approximately 1000 calories, with 50% of the calories from fat).\nCohorts 8 to 10 were each composed of 12 healthy premenopausal women aged 18 to 45 years, inclusive. Cohorts 8 to 10 were referred to as the multiple-rising dose (MRD) portion of the study, where cohorts were dosed in escalating fashion. The MRD portion was not started until all the blinded safety and pharmacokinetic data from the SRD cohorts had been assessed by the investigator and the sponsor. […] Subjects received the first dose of study medication (Day 1) within 2 to 7 days following the onset of their menstrual cycle. Three ascending dose groups were planned: 10 mg once-daily (QD) (Cohort 8), 20 mg QD (Cohort 9), and 40 mg QD (Cohort 10). Subjects in each of Cohorts 8 to 10 received drug dosing on 14 days (Days 1 to 14).\nSubjects had to drink all of the water provided with the dose of study drug. Subjects were able to consume water ad libitum with the exception of 1 hour prior to and 1 hour after drug administration, not including the 240 mL of water taken with dosing.\nTo assess the food effect, an analysis of variance was performed using Cohort 7 log(mean Cmax), log(area under the plasma drug concentration-time curves [mean plasam AUCs]) as dependent variable; treatment, sequence, period as fixed effects; and subject (seq) as a random effect."}, "[1]": {"test": "Example 4: pharmacodynamics (serum hormones, urine 6β-hydroxycortisol to cortisol ratio)", "format": "in vivo, human", "details": "in vivo", "description": "(§2) Descriptive statistics were used to summarize pharmacodynamic parameters: serum concentrations of estradiol (E2), FSH, LH, progesterone, growth hormone (GH), prolactin (PRL), thyrotropin, adrenocorticotropic hormone (ACTH) and urine 6β-hydroxycortisol to cortisol ratios (Q)."}, "[2]": {"system": "estradiol (E2), FSH, LH, progesterone", "test": "Example 4: pharmacodynamics (serum hormones, urine 6β-hydroxycortisol to cortisol ratio)", "format": "in vivo, human", "details": "10 mg to 40 mg QD", "description": "as §2"}, "[3]": {"system": "healthy premenopausal women", "test": "Example 4: safety and tolerability", "format": "in vivo, human", "details": "single doses up to 80 mg, up to 40 mg QD for 14 days", "description": "as §1\nSerum chemistry, hematology, urinalysis, vital signs, and ECGs were monitored during the study up to 1 week after the last dose. There were no meaningful changes in these parameters in the Compound 1 dose groups compared with placebo. QT and corrected QT interval (QTc) intervals >450 msec and […] were seen across all dose groups, including the placebo group."}, "[4]": {"test": "Example 9 6-week phase 1 study with or without E2/NETA: pharmacokinetics", "format": "in vivo", "details": "female, human, plasma, 40 mg; for half-life: plasma Compound 1 t1/2, mean (SD); for Tmax: plasma Compound 1 tmax, median (min, max)", "description": "(§3) Methods: This was a 6-week phase 1, randomized, open-label, parallel-group, study conducted at 4 sites in the US. […] The first day of dosing occurred on Day 1 to 6 of the menstrual cycle. Hormonal preparations were prohibited for at least 3 months prior to screening. […] Vasomotor symptoms were captured using a daily diary (from screening until follow-up)."}, "[5]": {"system": "healthy pre-menopausal women", "test": "Example 9: pharmacodynamics, menstruation, hot flash diary, bone resorption markers", "format": "in vivo, human", "description": "as §3"}, "FIG. 5B": {"test": "FIG. 5B", "description": "Table printed on a drawing sheet, FIG. 5B\nThe patent's description of the figure: FIGS. 5A-C are tables of plasma pharmacokinetic (PK) parameters for Cohorts 1 to 6 in accordance with Example 4.\nFirst reader's note: Plasma PK parameters by dose cohort; the series starts in FIG. 5A on another sheet and continues in FIG. 5C."}, "FIG. 6B": {"test": "FIG. 6B", "description": "Table printed on a drawing sheet, FIG. 6B\nThe patent's description of the figure: FIGS. 6A-C are tables of plasma PK parameters for Cohort 7 in accordance with Example 4.\nFirst reader's note: Part of a plasma PK table series (FIGS. 6A-C) for Cohort 7; each column is a fed or fasted 40 mg arm."}, "FIG. 7B": {"test": "FIG. 7B", "description": "Table printed on a drawing sheet, FIG. 7B\nThe patent's description of the figure: FIGS. 7A-F are tables of plasma PK parameters for Cohorts 8 to 10 in accordance with Example 4.\nFirst reader's note: Each column is a dose group; per the description these are Day 1 plasma PK values for Cohorts 8 to 10."}},
  "note": "Where “and” joins values, the source holds several entries; their conditions need not be identical. Equal entries are not always repeated.",
  "data": [
    {"smiles": "CONC(=O)Nc1ccc(-c2sc3c(c2CN(C)C)c(=O)n(-c2ccc(OC)nn2)c(=O)n3Cc2c(F)cccc2F)cc1", "note": "[Compound 1, N-(4-(1-(2,6-difluorobenzyl)-5-((dimethylamino)methyl)-3-(6-methoxy-3-pyridazinyl)-2,4-dioxo-1,2,3,4-tetrahydrothieno[2,3-d]pyrimidin-6-yl)phenyl)-N′-methoxyurea]", "values": [
      {"measurement": "CL renal", "setting": "clinical", "value": "95 to 138", "unit": "mL/min"},
      {"measurement": "Tmax, all subjects", "setting": "clinical", "value": "≤ 2", "unit": "h"},
      {"measurement": "half-life", "setting": "clinical", "value": "14 to 16", "unit": "h"},
      {"measurement": "mean Fe (fraction of dose excreted in urine)", "setting": "clinical", "value": "less than 3%"},
      {"measurement": "median Tmax", "setting": "clinical", "value": "1 to 1.48", "unit": "h"},
      {"measurement": "half-life", "setting": "clinical; 1 mg", "value": "~6", "unit": "h"},
      {"measurement": "Tmax", "setting": "clinical; 80 mg, median Tmax", "value": 4, "unit": "h"},
      {"measurement": "effect on endogenous GH, PRL, thyrotropin, and ACTH", "setting": "[1]", "value": "no apparent effect"},
      {"measurement": "ovulation (post-ovulation progesterone increase)", "setting": "[2]", "value": "prevented ovulation"},
      {"measurement": "safety and tolerability", "setting": "[3]", "value": "safe and well tolerated"},
      {"measurement": "AUC(0-t)", "setting": "[4]; Compound 1 AUC0-24, geometric mean (CV%), Week 6", "value": 116, "unit": "ng·h/mL"},
      {"measurement": "Cmax", "setting": "[4]; Compound 1 Cmax, geometric mean (CV%), Week 6", "value": 17.6, "unit": "ng/mL"},
      {"measurement": "AUC(0-t)", "setting": "[4]; plasma Compound 1 AUC0-24, mean (SD), Week 3", "value": 133, "unit": "ng·h/mL"},
      {"measurement": "AUC(0-t)", "setting": "[4]; plasma Compound 1 AUC0-24, mean (SD), Week 6", "value": 125, "unit": "ng·h/mL"},
      {"measurement": "concentration at 3 week", "setting": "[4]; plasma Compound 1 Cavg, mean (SD), Week 3", "value": 5.53, "unit": "ng/mL"},
      {"measurement": "concentration at 6 week", "setting": "[4]; plasma Compound 1 Cavg, mean (SD), Week 6", "value": 5.2, "unit": "ng/mL"},
      {"measurement": "Cmax", "setting": "[4]; plasma Compound 1 Cmax, mean (SD), Week 3", "value": 21.8, "unit": "ng/mL"},
      {"measurement": "Cmax", "setting": "[4]; plasma Compound 1 Cmax, mean (SD), Week 6", "value": 19.5, "unit": "ng/mL"},
      {"measurement": "concentration at 3 week", "setting": "[4]; plasma Compound 1 Ctrough, mean (SD), Week 3", "value": 2.57, "unit": "ng/mL"},
      {"measurement": "concentration at 6 week", "setting": "[4]; plasma Compound 1 Ctrough, mean (SD), Week 6", "value": 2.45, "unit": "ng/mL"},
      {"measurement": "half-life", "setting": "[4]; Week 3", "value": 16.7, "unit": "h"},
      {"measurement": "half-life", "setting": "[4]; Week 6", "value": 17.1, "unit": "h"},
      {"measurement": "Tmax", "setting": "[4]; Week 3", "value": 2.02, "unit": "h"},
      {"measurement": "Tmax", "setting": "[4]; Week 6", "value": 2, "unit": "h"},
      {"measurement": "No bleeding", "setting": "[5]; last 28 days of treatment", "value": "18 (72.0%) n (%)"},
      {"measurement": "No light/normal/heavy bleeding (i.e., no bleeding except spotting)", "setting": "[5]; last 28 days of treatment", "value": "22 (88.0%) n (%)"},
      {"measurement": "No normal/heavy bleeding", "setting": "[5]; last 28 days of treatment", "value": "23 (92.0%) n (%)"},
      {"measurement": "subjects reporting no menstrual bleeding (except spotting)", "setting": "[5]; last 28 days of treatment", "value": 88.0, "unit": "%"},
      {"measurement": "subjects reporting no normal or heavy bleeding", "setting": "[5]; last 28 days of treatment", "value": 92.0, "unit": "%"},
      {"measurement": "average number of hot flash per subject (any severity)", "setting": "[5]; week 6", "value": 72.6},
      {"measurement": "number of hot flash in subjects reporting severe hot flash", "setting": "[5]; week 6", "value": 63.2},
      {"measurement": "proportion of subjects reporting hot flash", "setting": "[5]; week 6", "value": 60, "unit": "%"},
      {"measurement": "Tmax (hr) | Median", "setting": "FIG. 5B", "value": "0.775 h and 1.015 h and 1.500 h"},
      {"measurement": "Lambda_z (1/hr) | Mean", "setting": "FIG. 6B", "value": "0.04147 h⁻¹ and 0.04013 h⁻¹"},
      {"measurement": "T1/2 (hr) | Mean", "setting": "FIG. 6B", "value": "16.9911 h and 17.6896 h"},
      {"measurement": "Tmax (hr) | Median", "setting": "FIG. 6B", "value": "3.005 h and 3.980 h"},
      {"measurement": "CL/F (L/hr) | Mean", "setting": "FIG. 7B", "value": "959.7 L/h and 697.6 L/h"},
      {"measurement": "Tmax (hr) | Median", "setting": "FIG. 7B", "value": 1.480, "unit": "h"}
    ]}
  ]
}
